Data on 13 molecules can be found in PubChem BioAssay (NCI).

Test systems include SR leukemia; EKVX NSCLC; COLO 205 colon; NCI-H23 lung; SF-539 CNS; NCI-H460 lung; 786-0 renal; SF-295 CNS; HL-60(TB) leukemia; NCI/ADR-RES ovarian; BT-549 breast.
Holding throughout (assay): NCI tumour cell line growth inhibition, 48 h

The structures appear in SMILES notation.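 Compound exposure: 48 hours, 5 concentrations, 96-well plates. TGI denotes the concentration required for complete inhibition of growth.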

With `CCOC(=O)c1cc(C2(O)CCN(Cc3ccccc3)C2=O)c(-c2cc(C)no2)[nH]1` (configuration not stated), the TGI in the assay with SR leukemia, with EKVX NSCLC, with COLO 205 colon, in the assay with NCI-H23 lung, in the assay on SF-539 CNS and in the assay with NCI-H460 lung was greater than 100 µM in each case. For the same molecule, the TGI in the assay with 786-0 renal is greater than 100 µM; in the assay with SF-295 CNS, 78.4 µM; with HL-60(TB) leukemia, 34.7 µM; with NCI/ADR-RES ovarian, greater than 100 µM; in the assay with BT-549 breast it was greater than 100 µM.

Turning to `CCOC(=O)c1sc2nc(SC)nc3c2c1N=CN3c1ccc(Br)cc1`, the TGI in the assay on SR leukemia, in the assay with EKVX NSCLC, in the assay with COLO 205 colon, in the assay on NCI-H23 lung, in the assay with NCI-H460 lung and with 786-0 renal was greater than 100 µM each time. Further, the TGI in the assay with SF-295 CNS, with HL-60(TB) leukemia, in the assay with NCI/ADR-RES ovarian and with BT-549 breast was greater than 100 µM each time.

As for `CC1(C)CC2(C)CC1CC2O` (configuration not stated), the TGI with SR leukemia, in the assay on EKVX NSCLC, with COLO 205 colon, in the assay with NCI-H23 lung, in the assay on SF-539 CNS and with 786-0 renal was greater than 100 µM in each case. The TGI with SF-295 CNS, with HL-60(TB) leukemia, with NCI/ADR-RES ovarian and in the assay on BT-549 breast was greater than 100 µM each time.

As to `CC[C@@H]1CC[C@@H]2[C@H](CC[C@]3(C)[C@@H](O)CC[C@@H]23)[C@H]1C(=O)O`, the TGI with EKVX NSCLC, with COLO 205 colon, in the assay with NCI-H23 lung, in the assay on SF-539 CNS, in the assay on NCI-H460 lung and in the assay with 786-0 renal was greater than 100 µM throughout. Further, the TGI with SF-295 CNS, in the assay with HL-60(TB) leukemia, in the assay on NCI/ADR-RES ovarian and in the assay on BT-549 breast was greater than 100 µM each time.

As to `C=CCN(CC=C)Cn1c(=S)sc2ccccc21`, the TGI in the assay with EKVX NSCLC, in the assay with COLO 205 colon, in the assay with NCI-H23 lung, with SF-539 CNS, in the assay on NCI-H460 lung and in the assay with 786-0 renal was greater than 100 µM in each case. For the same molecule, the TGI in the assay with SF-295 CNS is greater than 100 µM; in the assay with HL-60(TB) leukemia, 41 µM; with NCI/ADR-RES ovarian it was greater than 100 µM; in the assay on BT-549 breast, greater than 100 µM.

Turning to `Cc1cc(-c2nc3ccccc3s2)ccc1NS(=O)(=O)O`, the TGI with SR leukemia is greater than 100 µM; in the assay with EKVX NSCLC, greater than 100 µM; in the assay with COLO 205 colon it was greater than 11.9 µM; with NCI-H23 lung it was greater than 100 µM; in the assay on SF-539 CNS it was greater than 100 µM; with NCI-H460 lung, greater than 100 µM. The TGI with 786-0 renal, in the assay with SF-295 CNS, in the assay on NCI/ADR-RES ovarian and in the assay on BT-549 breast was greater than 100 µM in each case.

Regarding `Cc1sc2nc3n(c(=O)c2c1C)N=CN(c1ccccc1)C3`, the TGI in the assay on SR leukemia is greater than 100 µM; in the assay on EKVX NSCLC, greater than 100 µM; in the assay on COLO 205 colon, greater than 100 µM; with NCI-H23 lung it was greater than 100 µM; in the assay with NCI-H460 lung it was greater than 100 µM; with 786-0 renal it was 46.5 µM. Also, the TGI in the assay on SF-295 CNS, in the assay with NCI/ADR-RES ovarian and with BT-549 breast was greater than 100 µM each time.

As for `OCC1CCCC(n2cnc3c(=S)nc[nH]c32)O1` (configuration not stated), the TGI in the assay on SR leukemia, in the assay with EKVX NSCLC, with COLO 205 colon, with NCI-H23 lung, in the assay with NCI-H460 lung and in the assay on 786-0 renal was greater than 100 µM throughout. In addition, the TGI in the assay with SF-295 CNS, in the assay with NCI/ADR-RES ovarian and in the assay with BT-549 breast was greater than 100 µM each time.

As for `Clc1cc(N/N=C(/c2ccccc2)c2ncccn2)ncn1`, the TGI in the assay with SR leukemia was greater than 100 µM; with EKVX NSCLC, 93 µM; in the assay with COLO 205 colon, 22.8 µM; in the assay with NCI-H23 lung it was 58.3 µM; in the assay on SF-539 CNS, 54.7 µM; in the assay with NCI-H460 lung, 46.6 µM. The TGI was 79.3 µM in the assay on 786-0 renal, 77.6 µM in the assay with SF-295 CNS, 50.8 µM in the assay with NCI/ADR-RES ovarian and greater than 100 µM with BT-549 breast.

For `CC12CC(c3ccccc3O1)C(C(=O)Nc1ccc(F)cc1)C(=O)N2` (configuration not stated), the TGI in the assay on SR leukemia, in the assay with EKVX NSCLC, in the assay with COLO 205 colon, with NCI-H23 lung, with SF-539 CNS and in the assay with NCI-H460 lung was greater than 100 µM each time. Further, the TGI with 786-0 renal, in the assay on HL-60(TB) leukemia, with NCI/ADR-RES ovarian and in the assay with BT-549 breast was greater than 100 µM each time.

As to `COc1cc(COC(=O)N[C@H](C(=O)O)C(C)(C)C)c([N+](=O)[O-])cc1OC`, the TGI in the assay with SR leukemia, in the assay with EKVX NSCLC, with COLO 205 colon, with NCI-H23 lung, with SF-539 CNS and in the assay on NCI-H460 lung was greater than 100 µM throughout. For the same molecule, the TGI with 786-0 renal, in the assay on SF-295 CNS, with NCI/ADR-RES ovarian and with BT-549 breast was greater than 100 µM in each case.

For the molecule `CCOC(=O)c1c(NC(=O)c2ccccc2)sc2c1CCCC2`, the TGI in the assay with EKVX NSCLC, in the assay on COLO 205 colon, in the assay on NCI-H23 lung, in the assay on SF-539 CNS, in the assay on 786-0 renal and with SF-295 CNS was greater than 100 µM in each case. Besides, the TGI in the assay on HL-60(TB) leukemia, with NCI/ADR-RES ovarian and with BT-549 breast was greater than 100 µM in each case.

Consider `CCCN=C1CC(C)Nc2ccccc2N1` (configuration not stated), for which the TGI with EKVX NSCLC, in the assay with COLO 205 colon, in the assay with NCI-H23 lung, in the assay with NCI-H460 lung, in the assay with 786-0 renal and in the assay with SF-295 CNS was greater than 100 µM throughout. The TGI with HL-60(TB) leukemia, with NCI/ADR-RES ovarian and in the assay on BT-549 breast was greater than 100 µM in each case.
